Laboratory results reported in patent US20260199323A1, “LIGAND COMPOUNDS FOR E3 UBIQUITIN LIGASE, PROTEIN DEGRADERS DEVELOPED ON BASIS OF LIGAND COMPOUNDS, AND USES THEREOF” (GLUETACS THERAPEUTICS (SHANGHAI) CO., LTD., priority 2021, published 2026).
Where two headings read alike, the source gives them in different places.

Columns and labels:
[1] = test system: HCC827; assay: CCK-8 tumor cell proliferation, HCC827; format: cell-based, Human; settings: for IC50: Homo sapiens, HCC827, read-out: IC50 inhibiting proliferation of tumor cells, HCC827; for IC50 for inhibiting the proliferation of tumor cells, HCC827: Table 11, designed based on EGFR inhibitors, 96 h
Description: The tumor cells used herein were cultured in a cell culture medium listed in table 4 at 37° C. in an incubator with 5% CO2.
(§1) After 24 h, 100 μL of the inoculated cells were treated with 0.5 μL of the compounds of the present disclosure (including the compounds in Tables 1 and 3, and compounds of examples) at 10 different successively decreasing concentrations (starting at the highest concentration of 10 μM; 5-fold serial dilutions). After the cells were treated with the compounds of the present disclosure for a period of time, the cell viability detection reagent was added to the culture medium for cell viability assessment according to the instructions provided with the CCK-8 kit. […] The growth inhibition of the compounds of the present disclosure on cells was plotted by Prism Graphpad software, and the IC50 values of the compounds of the present disclosure were calculated therefrom.

[2] = test system: LNcap; assay: CCK-8 tumor cell proliferation, LNcap; format: cell-based, Human; settings: Homo sapiens
Description: (§2) The tumor cells used herein were cultured in a cell culture medium listed in table 4 at 37° C. in an incubator with 5% CO2. Prior to experimentation, all cells used were correctly identified by STR profiling, and tested negative for mycoplasma through routine screenings.
as §1, with “IC50 values of the compounds of the present disclosure (including the compounds in Tables 1 and 3, and compounds of examples) were measured using the Meilun Cell Counting Kit-8 kit from Dalian Meilun Biotech Co., Ltd. Assay details are as follows: tumor cells were seeded in a 96-well plate at a density listed in Table 5. After 24” for “After 24”

[3] = test system: SR; assay: CCK-8 tumor cell proliferation, SR; format: cell-based, Human; settings: Homo sapiens, SR, read-out: IC50 inhibiting proliferation of tumor cells, SR
Method in brief: (§3)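 Authenticated cells, kept at 37 °C and 5% CO2, were given compound a day after plating; doses spanned 10 levels in 5-fold decrements from 10 μM. IC50 values come from CCK-8 viability readings.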

[4] = test system: CCRF-CEM; assay: CCK-8 tumor cell proliferation, CCRF-CEM; format: cell-based, Human; settings: Homo sapiens, CCRF-CEM, read-out: IC50 inhibiting proliferation of tumor cells, CCRF-CEM
Method in brief: as §3

[5] = test system: MM.1S; assay: CCK-8 tumor cell proliferation, MM.1S; format: cell-based; settings: Homo sapiens, MM1.S; Table 20; MM.1S; given as number; read-out: IC50 inhibiting proliferation of tumor cells, MM.1S
Method in brief: as §3

[6] = test system: MDA-MB-231; assay: CCK-8 tumor cell proliferation, MDA-MB-231; format: cell-based, Human; settings: Homo sapiens, MDA-MB-231, read-out: IC50 inhibiting proliferation of tumor cells, MDA-MB-231
Method in brief: as §3

[7] = test system: PC-9; assay: CCK-8 tumor cell proliferation, PC-9; format: cell-based, Human; settings: Homo sapiens; Table 15, ALK inhibitor based; PC-9; read-out: IC50 inhibiting proliferation of tumor cells, PC-9
[8] = test system: Mino; assay: CCK-8 tumor cell proliferation, Mino; format: cell-based, Human; settings: Homo sapiens; Table 15, ALK inhibitor based; Mino; read-out: IC50 inhibiting proliferation of tumor cells, Mino
Method in brief: as §3

[9] = test system: Hep3B2.7-1; assay: CCK-8 tumor cell proliferation, Hep3B2.7-1; format: cell-based, Human; settings: Homo sapiens
Description: as §2
as §1, with “IC50 values of the compounds of the present disclosure (including the compounds in Tables 1 and 3, and compounds of examples) were measured using the Meilun Cell Counting Kit-8 kit from Dalian Meilun Biotech Co., Ltd. Assay details are as follows: tumor cells were seeded in a 96-well plate at a density listed in Table 5. After 24” for “After 24”

[10] = test system: MM.1R; assay: CCK-8 tumor cell proliferation, MM.1R; format: cell-based; settings: read-out: IC50 inhibiting proliferation of tumor cells, MM.1R
Description: as §2
as §1, with “IC50 values of the compounds of the present disclosure (including the compounds in Tables 1 and 3, and compounds of examples) were measured using the Meilun Cell Counting Kit-8 kit from Dalian Meilun Biotech Co., Ltd. Assay details are as follows: tumor cells were seeded in a 96-well plate at a density listed in Table 5. After 24” for “After 24”

[11] = test system: Kasumi-1; assay: CCK-8 tumor cell proliferation, Kasumi-1; format: cell-based, Human; settings: Homo sapiens, Kasumi-1, read-out: IC50 inhibiting proliferation of tumor cells, Kasumi-1
Description: as §2
as §1, with “IC50 values of the compounds of the present disclosure (including the compounds in Tables 1 and 3, and compounds of examples) were measured using the Meilun Cell Counting Kit-8 kit from Dalian Meilun Biotech Co., Ltd. Assay details are as follows: tumor cells were seeded in a 96-well plate at a density listed in Table 5. After 24” for “After 24”

[12] = test system: Jurkat; assay: CCK-8 tumor cell proliferation, Jurkat; format: cell-based, Human; settings: Homo sapiens, read-out: IC50 inhibiting proliferation of tumor cells, Jurkat
Method in brief: as §3

[13] = Table 20, BCL-2 inhibitor based
[14] = Table 22, NTRK inhibitor based, HEP3B2.7-1, read-out: IC50 inhibiting proliferation of tumor cells, HEP3B2.7-1
[15] = Table 19, IRAK4 inhibitor based, Hep3B2.7-1, read-out: IC50 inhibiting proliferation of tumor cells, Hep3B2.7-1
[16] = Table 19, IRAK4 inhibitor based
[17] = Table 19, IRAK4 inhibitor based, Lncap, read-out: IC50 inhibiting proliferation of tumor cells, Lncap

CC1(C)CCC(CN2CCN(c3ccc(C(=O)NS(=O)(=O)c4ccc(NCC5CCOCC5)c([N+](=O)[O-])c4)c(Oc4cnc5[nH]ccc5c4)c3)CC2)=C(c2ccc(Cl)cc2)C1 [ABT-199, Venetoclax, reference compound]
IC50 [1, 13]: 5000 to 10000 nM
IC50 ([2]; Table 20, BCL-2 inhibitor based, LNcap, read-out: IC50 inhibiting proliferation of tumor cells, LNcap): 1000 to 5000 nM
IC50 [3, 13]: 500 to 1000 nM
IC50 ([4]; Table 20, given as number): > 10000 nM
IC50 [5]: > 10000 nM
IC50 [6, 13]: 1000 to 5000 nM

COc1cc2ncnc(Nc3cccc(Cl)c3F)c2cc1OCc1ccc2c(c1)CN(C1CCC(=O)NC1=O)C2=O (centres unmarked) [GT-03325, 3-(5-(((4-((3-chloro-2-fluorophenyl)amino)-7-methoxyquinazolin-6-yl)oxy)methyl)-1-oxoisoindolin-2-yl)piperidine-2,6-dione]
IC50 for inhibiting the proliferation of tumor cells, HCC827 [1]: A+

CCc1cc2c(cc1N1CCC(N(C)Cc3ccc4c(c3)CN(C3CCC(=O)NC3=O)C4=O)CC1)C(C)(C)c1[nH]c3cc(C#N)ccc3c1C2=O (centres unmarked) [GT-03474, 8-(4-(((2-(2,6-dioxopiperidin-3-yl)-1-oxoisoindolin-5-yl)methyl)(methyl)amino)piperidin-1-yl)-9-ethyl-6,6-dimethyl-11-oxo-6,11-dihydro-5H-benzo[b]carbazole-3-carbonitrile]
IC50 ([1]; Table 15, ALK inhibitor based): 1000 to 5000 nM
IC50 ([3]; Table 15, ALK inhibitor based): < 50 nM
IC50 ([6]; Table 15, ALK inhibitor based): 1000 to 5000 nM
IC50 [7]: 500 to 1000 nM

COc1cc(N2CCC(N(C)Cc3cc4c(cc3F)C(=O)N(C3CCC(=O)NC3=O)C4)CC2)ccc1Nc1ncc(Cl)c(Nc2ccccc2P(C)(C)=O)n1 (centres unmarked) [GT-03601, 3-(5-(((1-(4-((5-chloro-4-((2-(dimethylphosphoryl)phenyl)amino)pyrimidin-2-yl)amino)-3-methoxyphenyl)piperidin-4-yl)(methyl)amino)methyl)-6-fluoro-1-oxoisoindolin-2-yl)piperidine-2,6-dione]
IC50 [8]: 5000 to 10000 nM
IC50 ([1]; Table 15, ALK inhibitor based): 100 to 500 nM
IC50 ([3]; Table 15, ALK inhibitor based): < 50 nM
IC50 ([6]; Table 15, ALK inhibitor based): 100 to 500 nM
IC50 [7]: 100 to 500 nM

O=C1CCC(N2Cc3cc(CN4CCN(c5cccc(-c6cnn7ccc(N8CCC[C@@H]8c8cc(F)ccc8F)nc67)n5)CC4)ccc3C2=O)C(=O)N1 (stereo partly drawn) [GT-04262, 3-(5-((4-(6-(5-((R)-2-(2,5-difluorophenyl)pyrrolidin-1-yl)pyrazolo[1,5-a]pyrimidin-3-yl)pyridin-2-yl)piperazin-1-yl)methyl)-1-oxoisoindolin-2-yl)piperidine-2,6-dione]
IC50 [9, 14]: < 50 nM
IC50 ([10]; Table 22, NTRK inhibitor based): < 50 nM
IC50 ([11]; Table 22, NTRK inhibitor based): 100 to 500 nM
IC50 ([12]; Table 22, NTRK inhibitor based): 100 to 500 nM
IC50 ([4]; Table 22, NTRK inhibitor based): < 50 nM

O=C1CCC(N2Cc3c(ccc(CN4CCN(c5cccc(-c6cnn7ccc(N8CCC[C@@H]8c8cc(F)ccc8F)nc67)n5)CC4)c3F)C2=O)C(=O)N1 (stereo partly drawn) [GT-04263, 3-(5-((4-(6-(5-((R)-2-(2,5-difluorophenyl)pyrrolidin-1-yl)pyrazolo[1,5-a]pyrimidin-3-yl)pyridin-2-yl)piperazin-1-yl)methyl)-4-fluoro-1-oxoisoindolin-2-yl)piperidine-2,6-dione]
IC50 [9, 14]: < 50 nM
IC50 ([10]; Table 22, NTRK inhibitor based): < 50 nM
IC50 ([11]; Table 22, NTRK inhibitor based): 500 to 1000 nM
IC50 ([12]; Table 22, NTRK inhibitor based): 100 to 500 nM
IC50 ([4]; Table 22, NTRK inhibitor based): 50 to 100 nM

O=C1CCC(N2Cc3cc(CN4CCN(c5ccc(-n6cc(NC(=O)c7coc(-c8ccnc(NCC(F)(F)F)c8)n7)c(C(F)F)n6)cc5)CC4)c(F)cc3C2=O)C(=O)N1 (centres unmarked) [GT-04269, N-(3-(difluoromethyl)-1-(4-(4-((2-(2,6-dioxopiperidin-3-yl)-6-fluoro-1-oxoisoindolin-5-yl)methyl)piperazin-1-yl)phenyl)-1H-pyrazol-4-yl)-2-(2-((2,2,2-trifluoroethyl)amino)pyridin-4-yl)oxazole-4-carboxamide]
IC50 [9, 15]: < 50 nM
IC50 [10, 16]: 100 to 500 nM
IC50 [11, 16]: 50 to 100 nM
IC50 [2, 17]: 100 to 500 nM
IC50 [12, 16]: 50 to 100 nM
IC50 [4, 16]: 100 to 500 nM

O=C1CCC(N2Cc3c(CN4CCN(c5ccc(-n6cc(NC(=O)c7coc(-c8ccnc(NCC(F)(F)F)c8)n7)c(C(F)F)n6)cc5)CC4)cccc3C2=O)C(=O)N1 (centres unmarked) [GT-04271, N-(3-(difluoromethyl)-1-(4-(4-((2-(2,6-dioxopiperidin-3-yl)-1-oxoisoindolin-4-yl)methyl)piperazin-1-yl)phenyl)-1H-pyrazol-4-yl)-2-(2-((2,2,2-trifluoroethyl)amino)pyridin-4-yl)oxazole-4-carboxamide]
IC50 [9, 15]: < 50 nM
IC50 [10, 16]: < 50 nM
IC50 [11, 16]: < 50 nM
IC50 [2, 17]: 50 to 100 nM
IC50 [12, 16]: < 50 nM
IC50 [4, 16]: < 50 nM

O=C1CCC(N2C(=O)c3ccc(CN4CCN(c5ccc(-n6cc(NC(=O)c7coc(-c8ccnc(NCC(F)(F)F)c8)n7)c(C(F)F)n6)cc5)CC4)cc3C2=O)C(=O)N1 (centres unmarked) [GT-04272, N-(3-(difluoromethyl)-1-(4-(4-((2-(2,6-dioxopiperidin-3-yl)-1,3-dioxoisoindolin-5-yl)methyl)piperazin-1-yl)phenyl)-1H-pyrazol-4-yl)-2-(2-((2,2,2-trifluoroethyl)amino)pyridin-4-yl)oxazole-4-carboxamide]
IC50 [9, 15]: 500 to 1000 nM
IC50 [10, 16]: 500 to 1000 nM
IC50 [11, 16]: 50 to 100 nM
IC50 [2, 17]: 100 to 500 nM
IC50 [12, 16]: 1000 to 5000 nM

C=CC(=O)Nc1cc(Nc2nccc(-c3cn(C)c4ccccc34)n2)c(OC)cc1N(C)CCN(C)C [osimertinib, Osimertinib, reference compound]
IC50 for inhibiting the proliferation of tumor cells, HCC827 [1]: A+
